Key:
[1] = tested on: cotyledon of cucumber (variety: Yotsuba); experiment: Microbicide (Benomyl) absorption enhancement by spraying jasmonic acids; assay type: in vivo
Protocol: In the present test, Benlate (registered trademark, manufactured by DuPont Corp., containing 50% of Benomyl as the main component) was used as microbicide. As a test material, cotyledon of cucumber (variety: Yotsuba) was used and absorption amount of the microbicide (hereinafter, referred to as “Benomyl absorption amount”) was measured. To the cucumber on day 10 after the seeding was uniformly sprayed 0.22 ml per individual of 0.1% Benlate solution (0.05% Benomyl containing solution) that contains methyl jasmonate (hereinafeter, abbreviated as “MeJA”) or n-propyl (2-pentyl-3-oxocyclopentyl)acetate, also named n-propyldihydrojasmonic acid (hereinafter, abbreviated as “PDJ”) and the cucumber was placed in a glass-made chamber. MeJA or PDJ was mixed to make 0.001 ppm, 0.01 ppm, 0.1 ppm, 1.0 ppm, or 5.0 ppm based on the Benlate solution amount and applied simultaneously. After sealing the lid of the chamber, the cucumber was cultivated in an air-conditioned room. As a control, similarly Benlate-treated cucumber seedlings were placed in a separate chamber and cultivated.
After two days of cultivation, the cotyledons were cut off and the surfaces of them were washed carefully with a neutral detergent. The cotyledons were ground and extracted with heating. The treatment of extraction solution and quantitation of Benomyl were carried out by high performance liquid chromatography referring to the quantitation method of Benomyl in Residual Pesticide Standards Handbook (Kagaku Kogyo Nippo, 1995, pp843-845) using 2-methylbenzimidazolecarbamate, which is a metabolite of Benomyl, as an indicator. […] As will be apparent from Table 1, enhancement of the absorption of Benomyl by application of MeJA or PDJ was observed.
Tests on microbicide absorption enhancement were performed in the same manner as in Test Example 1 using the following compounds. Common names and abbreviations of each compound are shown in the brackets. The compounds were synthesized in the same manner as in the examples in Japanese Patent Application Laid-open No. Hei 11-140022. • 1. […] (dihydrojasmonic acid: DJA) • 2. allyl (2-pentyl-3-oxocyclopentyl)acetate (allyl dihydrojasmonate: ADJ) • 3. 2-pentenyl (2-pentyl-3-oxocyclopentyl)acetate (dihydrojasmonic acid-2-pentenyl: PEDJ) • 4. 3-butenyl (2-pentyl-3-oxocyclopentyl)acetate (dihydrojasmonic acid-3-butenyl: BEDJ) • 5. 3-butynyl (2-pentyl-3-oxocyclopentyl)acetate (butynyl dihydrojasmonate : BYDJ)
Each compound was mixed so that it occupies 0.01 ppm based on the Benlate solution and given at the same time. Extraction and quantitation were practiced by the methods described in Test Example 1. The results are shown as relative values of Benomyl absorption amount in each lot to that of control. As a result, as will be apparent from Table 6, enhancement of absorption of Benomyl was confirmed.

cucumber powdery mildew = experiment: Powdery mildew preventive effect improvement by methyl jasmonate fumigation; assay type: in vivo, Sphaeheca fuliginea; conditions: MeJA fumigation 25 μl/m^3 after 0.1% Benlate spraying; infection on day 3; control lot (no fumigation) = 100
Protocol: Cucumber seedlings were cultivated in the same manner as in Test Example 2 and uniformly sprayed with 0.22 ml per individual of 0.1% Benlate solution (0.05% Benomyl containing solution). Thereafter, MeJA fumigation was performed as follows. MeJA Stock solution was charged in an open Petri dish (φ60 mm) to 25 μl/m^3, which was placed in a glass-made chamber and then sealed. On day 3 after the initiation of the fumigation, cucumber powdery mildew was infected in the same manner as in Test Example 3 and powdery mildew plaque number was counted. […] The control lot means a lot in which no MeJA fumigation was performed. Thus, it was confirmed that MeJA fumigation further improved the powdery mildew preventive effect of Benomyl.

cucumber seedlings = experiment: Benomyl absorption enhancement by fumigation of methyl jasmonate; assay type: in vivo; conditions: MeJA fumigation 25 μl/m^3, natural diffusion in sealed chamber; seedlings sprayed with 0.1% Benlate solution
Protocol: MeJA was applied as follows. MeJA Stock solution was charged in an open Petri dish (φ60 mm) to 25 μl/m^3, which was placed in a glass-made chamber and then sealed and allowed to naturally diffuse. Then, cucumber seedlings uniformly sprayed with 0.22 ml per individual of 0.1% Benlate solution (0.05% Benomyl containing solution) were placed and sealed. This was cultivated in an air-conditioned room. As a control cucumber seedlings that had been similarly treated with Benlate but not fumigated with MeJA were placed in a separate chamber and cultivated. Extraction was made in the same manner as in Test Example 1 and comparative quantitation in comparison with control lot was made.

[2] = tested on: cucumber powdery mildew (Sphaeheca fuliginea); experiment: Powdery mildew preventive effect improvement by PDJ spraying; assay type: in vivo; conditions: infection 3 days after application, plaques counted after 10 days, control lot (Benlate without PDJ) = 100
Protocol: Cucumber seedlings were cultivated in the same manner as in Test Example 1 and uniformly sprayed with 0.22 ml per individual of 0.1% Benlate solution (0.05% Benomyl containing solution) mixed with PDJ in an amount of 0.01 ppm or 0.1 ppm based on the amount of Benlate solution. After 3 days from the application of Benlate solution, a spore suspension of cucumber powdery mildew (Sphaeheca fuliginea) prepared to 1.0×10^5 cells/ml was sprayed (0.2 ml per individual) on a first true leaf of each seedling and the seedlings were cultivated in a glass-made chamber. After 10 days, powdery mildew plagues were counted. […] Morbidity=(Average of powdery mildew plaque number on cucumber first true leaf in each treated lot)/(Average of powdery mildew plaque number on cucumber first true leaf in control lot)×100
Here, the control lot means a lot that is treated with a Benlate solution containing no PDJ. Thus, it was confirmed that PDJ spraying further increased the powdery mildew preventive effect of Benomyl.

Poa annua = experiment: Herbicidal effect enhancement by PDJ spraying; assay type: in vivo; conditions: Herbie liquid diluted 1/1000 plus PDJ 0.01 ppm; sprayed 5 ml/15 individuals; dry weight of above-ground part after 2 weeks
Protocol: Seeds of Poa annua were sown on commercially available cultivation soil for raising seedlings and after about 2 weeks of cultivation, seedlings of about 6 cm in height were obtained. For each lots, tests were performed in 5 series each with 3 individuals. The herbicide used was Herbie liquid (registered trademark of Meiji Seika Kaisha Limited, 18% Bialaphos containing solution) diluted to 1/1000. PDJ was used as a pharmacological action enhancer and this was added in an amount of 0.01 ppm based on the liquid amount of the herbicide. Application to the plant body was performed by spraying in an amount of 5 ml/15 individuals. After 2 weeks from the application, the dry weight of above-ground part was measured and mortality was calculated in accordance with the following equation and the effect was compared. […] Wilting Mortality={1−(growth amount of applied lot/growth amount of non-applied lot)}×100

[3] = 0.001 ppm in 0.1% Benlate solution, sprayed simultaneously, cucumber cotyledons after two days
[4] = 0.01 ppm in 0.1% Benlate solution, sprayed simultaneously, cucumber cotyledons after two days
[5] = 0.1 ppm in 0.1% Benlate solution, sprayed simultaneously, cucumber cotyledons after two days
[6] = 1.0 ppm in 0.1% Benlate solution, sprayed simultaneously, cucumber cotyledons after two days
[7] = Test Example 6: 0.01 ppm based on the Benlate solution, given at the same time

| SMILES | Relative value (%) of Benomyl absorption amount to that of control lot [1, 3] | Relative value (%) of Benomyl absorption amount to that of control lot [1, 4] | Relative value (%) of Benomyl absorption amount to that of control lot [1, 5] | Relative value (%) of Benomyl absorption amount to that of control lot [1, 6] | Relative value (%) of Benomyl absorption amount to that of control lot [1, 7] | other results |
| --- | --- | --- | --- | --- | --- | --- |
| CC/C=C\CC1C(=O)CCC1CC(=O)OC (stereo not drawn) [MeJA] | 96% | 124% | 127% | 142% |  | Relative value (%) of Benomyl absorption amount to that of control lot ([1]; 5.0 ppm in 0.1% Benlate solution, sprayed simultaneously, cucumber cotyledons after two days): 113%; Powdery Mildew Morbidity (cucumber powdery mildew): 76; Relative value (%) of Benomyl absorption amount to that of control lot (cucumber seedlings): 144% |
| C#CCCOC(=O)CC1CCC(=O)C1CCCCC (stereo not drawn) [BYDJ, 3-butynyl (2-pentyl-3-oxocyclopentyl)acetate] |  |  |  |  | 130% |  |
| C=CCOC(=O)CC1CCC(=O)C1CCCCC (stereo not drawn) [ADJ, allyl (2-pentyl-3-oxocyclopentyl)acetate] |  |  |  |  | 145% |  |
| CCCCCC1C(=O)CCC1CC(=O)OCCC (stereo not drawn) [PDJ, n-propyl (2-pentyl-3-oxocyclopentyl)acetate] | 103% | 136% | 118% | 110% |  | Powdery Mildew Morbidity ([2]; PDJ 0.01 ppm in 0.1% Benlate solution): 70; Powdery Mildew Morbidity ([2]; PDJ 0.1 ppm in 0.1% Benlate solution): 88; Wilting Mortality (Poa annua): 81.2% |
| CCC=CCOC(=O)CC1CCC(=O)C1CCCCC (stereo not drawn) [PEDJ, 2-pentenyl (2-pentyl-3-oxocyclopentyl)acetate] |  |  |  |  | 130% |  |
| C=CCCOC(=O)CC1CCC(=O)C1CCCCC (stereo not drawn) [BEDJ, 3-butenyl (2-pentyl-3-oxocyclopentyl)acetate] |  |  |  |  | 155% |  |

Reference: US7176163B1, “Pharmacological effect potentiators for pesticides” (Meija Seika Kaisha, Ltd., priority 2000, dated 2007)
